Laboratory results taken from patent US10004761B2, “Malodor neutralizing composition” (priority 2016, dated 2018).

System: hyaluronidase Type IV-S, from bovine testes (Hyase)
Assay: HA gelation consistency (Method III) in the presence of Hyase
Type: biochemical
Settings: for Consistency after 24 h incubation at 37° C.: HA 1% 2 mL
Procedure: Method III (Viscosity of HA): HA at low concentrations (e.g., 1%) in aqueous solution forms a viscous colloidal hydrogel solution, which yields semi-solid gel particles at room temperature and a solid gel at 4° C.
HA degradation was evaluated using Method III, as described hereinabove.
HA state of gelation was studied in the presence of NAC and various HA-degrading enzymes, using the following Stock solutions:
The tested enzyme (50 μL) was placed in a tube, NAC (50 μL of the Stock solution, final concentration of about 3.3%) was added and the mixture was incubated for 2 hours at room temperature (23° C.). Then, 2 ml of HA 1% were added to each tube and tubes were further incubated at room temperature for additional 24 hours.
In a second set of experiments, NAC (50 μL of the Stock solution) was added to a tube containing 2 ml of HA 1%; and the tubes were incubated for 2 hours at room temperature. Then, the HA-degrading enzyme was added and tubes were incubated at room temperature for additional 24 hours. In control tubes 9 and 10 (containing only HA), 50 μL of water were added to achieve the same volume as the other tested tubes.
In another set of experiments, the effect of NAC powder, (at a final concentration of 20%), on HA gelation in the presence of Hyase or Chondroitinase ABC was tested. HA (2 ml of 1%), and the tested enzyme were incubated with and without 400 mg of NAC powder, at 4° C. and at 37° C.
HA gelation in the presence of various concentrations of NAC and/or various concentrations of Hyase was further studies. […] The solutions were maintained for 24 hours at room temperature, and thereafter Hyase, at various concentrations, was added. Then the mixtures were incubated at room temperature. The enzyme was absent in the control tubes.
In another set of experiments, the effect of various NAC concentrations on gelation of HA 1% (2 mL in each tube) in the presence of Hyase (50 μL of Stock solution) following incubation at 37° C., was tested, using the same procedure as described hereinabove.

CC(=O)N[C@@H](CS)C(=O)O [NAC, N-acetyl L-cysteine]
NAC concentration that fails to inhibit HA degradation (HA 1%, Hyase 50 μL, 37° C. 24 h): lower than 1% | NAC concentration range with the best effect (HA 1%, Hyase 50 μL, at 37° C.): 4-16% | Consistency after 24 h incubation at 37° C. (NAC 0.25% (5 mg), Hyase 50 μL): Fluid liquid (for a fluid liquid were in the range of 1-500 mPa S) | Consistency after 24 h incubation at 37° C. (NAC 0.5% (10 mg), Hyase 50 μL): Fluid liquid (for a fluid liquid were in the range of 1-500 mPa S) | Consistency after 24 h incubation at 37° C. (NAC 1.0% (20 mg), Hyase 50 μL): Viscous liquid (for a viscous liquid in the range of 1-10 Pa S) | Consistency after 24 h incubation at 37° C. (NAC 2.0% (40 mg), Hyase 50 μL): Viscous liquid (for a viscous liquid in the range of 1-10 Pa S) | Consistency after 24 h incubation at 37° C. (NAC 4.0% (80 mg), Hyase 50 μL): Semisolid (for a semi-solid in the range of 50-70 Pa S) | Consistency after 24 h incubation at 37° C. (NAC 8% (160 mg), Hyase 50 μL): Semisolid (for a semi-solid in the range of 50-70 Pa S) | Consistency after 24 h incubation at 37° C. (NAC 10% (200 mg), Hyase 50 μL): Semisolid (for a semi-solid in the range of 50-70 Pa S) | Consistency after 24 h incubation at 37° C. (NAC 20% (400 mg), Hyase 50 μL): Fluid liquid (for a fluid liquid were in the range of 1-500 mPa S) | Consistency (Table 2: Hyase 50 μL + NAC 50 μL (400 mM stock, about 3.3%) 2 h at 23° C., then HA 1% 2 mL, 24 h room temperature): Solid (for a solid the results were in the range of 80-100 Pa S and higher) | Consistency (Table 3: NAC 50 μL added to HA 1% 2 mL first (0.5% NAC final), 2 h, then Hyase 50 μL, 24 h room temperature): Fluid Liquid | Consistency (Table 4: NAC 400 mg dry powder (20% final), HA 2 cc of 1%, Hyase 50 μL, 4° C.): Semisolid (for a semi-solid in the range of 50-70 Pa S) | Consistency (Table 4: NAC 400 mg dry powder (20% final), HA 2 cc of 1%, Hyase 50 μL, 37° C., cell wraps: Viscous liquid): Viscous | Consistency (Table 5: NAC 5% (2 mL), HA 40 mg dry powder, Hyase 50 μL, room temperature, cell wraps: Solid, no crystals): Solid, no | Consistency (Table 5: NAC 10% (2 mL), HA 40 mg dry powder, Hyase 50 μL, room temperature, cell wraps: Solid, no crystals): Solid, no
